Test [1] concerns the target T1, MMP8 (human neutrophil collagenase) catalytic domain (Homo sapiens, UniProt P22894).
T1 construct: by means of the catalytic domain of MMP8
The experiment in a line: Inhibition of MMP8 catalytic domain, fluorescent DNP-substrate degradation. Format: biochemical. The procedure:
Said test provides for the determination via fluorescence of the inhibition of the degradation of a fluorescent substrate (DNP-Pro-Leu-Gly-Leu-Trp-Ala-D-Arg-[…], M1855 Bachem) by means of the catalytic domain of MMP8.
(§1) Reagents: 1) DNP-substrate=DNP-Pro-Leu-Gly-Leu-Trp-Ala-D-Arg-NH2 (M1855 Bachem), M. W. 977,l g/mol, concentration 25 μM in DMSO, 2) measurement buffer=50 mM TRIS/100 mM NaCl/10 mM CaCl2.2H2O, adjusted at pH 7 6 with hydrochloric acid. 3) Enzyme=catalytic domain of MMP8 ([…]), concentration 0.055 mg/ml in TRIS buffer. Substrate and enzyme are maintained at 0° C. with ice bath.
(§2) Total volume=1 ml of solution kept under stirring in a cuvette
(§3) It is measured the fluoresence at 346 nm both of the control solution (without inhibitor) and of the solution containing the inhibitor. The inhibition of the catalytic activity of MMP8 results in the decrease of the DNP-substrate bond's lysis, with related decrease of the fluorescence of the solution.
(§4) The percentage of inhibition is expressed by the following formula:
(§5) % Inhibition=100−(rel. unit/timewith inhibitor/rel. unit/timecontrol×100)
(§6) By repeating the experiment at different concentrations of inhibitor it is possible to determine the IC50 value.

For test [2], the target named is T2, MMP-9 (gelentinase 92 kD) (Homo sapiens, UniProt P14780).
T2 construct: MMP-9 IC50; other: catalytic domain
T2 sequence (P14780 with tags, fused parts or gaps DEL217-390 limits assumed): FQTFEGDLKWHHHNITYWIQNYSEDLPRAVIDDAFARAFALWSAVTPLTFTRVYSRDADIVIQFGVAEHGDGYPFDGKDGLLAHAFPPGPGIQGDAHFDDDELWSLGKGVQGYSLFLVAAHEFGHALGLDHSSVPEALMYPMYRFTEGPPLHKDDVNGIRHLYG
The experiment in a line: Inhibition of MMP-9 catalytic domain (same test as MMP8). Format: biochemical. The protocol: The compounds of the present invention have been tested in a pharmacological “in vitro” test of inhibition of MMP8 (human neutrophil collagenase). Said test provides for the determination via fluorescence of the inhibition of the degradation of a fluorescent substrate (DNP-Pro-Leu-Gly-Leu-Trp-Ala-D-Arg-[…], M1855 Bachem) by means of the catalytic domain of MMP8.
as §1, §2, §3, §4, §5, §6
The same test has been performed also on the MMP-9 (gelentinase 92 kD) and the selectivity between the two enzymes has been evaluated. Values of MMP-9/MMP-8 rate well below 1 are expected to give rise to less side toxic effects, since MMP-8 seems more involved in the regulation of vital functions that MMP-9 does.

The test system of test [3] is human fibrosarcoma HT1080 cells. The experiment in a line: Test of chemoinvasion through Type IV collagen coated Transwell chambers. It is filed as cell-based. The conditions noted are these: HT-1080, concentration 10^-7 M. The procedure: The compounds of the present invention have also shown activity in a test of chemoinvasion. In the test of chemoinvasion the Costar Transwell chambers for cell culture (diameter: 6.5 mm: pore size: 8 μm) are coated with 100 μl of Type IV collagen (diluted solution 50 μg/ml, then evaporation overnight). With the same procedure the chambers are coated with a second layer of Type IV collagen (100 μl of solution at concentration 50 μg/ml). Before use, the chambers are rinsed twice with sterile water and incubated for about 1 hour at 37° C. in a serum-free medium (DMEM).
The human fibrosarcoma HT1080 cells are harvested by trypsin-EDTA treatment, washed with DMEM-10% FCS and incubated for at least 30 minutes at 37° C. in the same medium. The cells are then washed with serum-free DMEM and resuspended in serum-free DMEM added with 0.1% BSA (fraction V), counted and diluted to obtain a final density of 3×10^5 cell/ml.
Preincubated inserts are aspirated to remove the serum-free medium. […]
Incubated filters are then washed with PBS, the cells are fixed 15 min. in 4% paraformaldehyde, permeabilized in methanol (10 minutes, −20° C.) and stained with May-Grunwald-Giemsa. Cells which adhere to the top of the filters are removed with a cotton swab, filters are detached from the bottom of the chambers and analyzed with microscope to determine the number of cells on the lower side of the filters. […]

SMILES strings stand for the structures. Read-outs that look alike come from different tables or passages of the source.

T1 sequence (P22894 100-262 limits assumed): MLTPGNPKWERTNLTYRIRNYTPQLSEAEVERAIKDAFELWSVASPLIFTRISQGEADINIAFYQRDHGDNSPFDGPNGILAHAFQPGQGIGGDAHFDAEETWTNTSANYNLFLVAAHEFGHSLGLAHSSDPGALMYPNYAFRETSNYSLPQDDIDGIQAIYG

The term IC50 denotes the midpoint of a concentration-inhibition curve. A word on the inhibition: it is the change of the read-out against control, counted positive when it falls. Low readings indicate a weak effect, high ones a strong effect. With `CCCCCCCCC1(CC(=O)N(CCNC(C)=O)Cc2ccccc2)C(=O)NC(=O)NC1=O` [Example 6, 5-octyl-5-(carboxymethyl)barbituric acid N′-acetyl-N-benzyl-N-ethylenediamide], the figures for the IC50 in test [1] and in test [2] were 0.068 µM and 0.014 µM, respectively. Testing at 0.1 µM in test [3] gave an inhibition of 73%.
With `CCCCCCCCC1(CC(=O)NCCNC(C)=O)C(=O)NC(=O)NC1=O` [Example 5, 5-octyl-5-(carboxymethyl)barbituric acid N′-acetyl N-ethylenediamide], the values for the IC50 in test [1] and in test [2] were 0.099 µM and 0.02 µM, respectively.
In the same order, the values of `CCCCCCCCC1(CC(=O)OCC)C(=O)NC(=O)NC1=O` [Example 1, 5-octyl-5-(ethoxycarbonylmethyl)barbituric acid] are 0.107 µM and 0.0196 µM.
Molecule `CNC(=O)[C@H](Cc1ccccc1)NC(=O)[C@H](CC(C)C)[C@H](CSc1ccccc1)C(=O)NO` [GI 129471, reference compound] came in with an inhibition at 0.1 µM in test [3] of 77%.
For the molecule `CNC(=O)[C@H](Cc1ccccc1)NC(=O)[C@H](CC(C)C)[C@H](CSc1cccs1)C(=O)NO` [batimastat, reference compound], in test [2] (catalytic domain, read-out: MMP-9 IC50), the IC50 amounted to 0.025 µM.

These data come from US6335332B1, “Barbituric acid derivatives with antimetastatic and antitumor activity” (Roche Diagnostics GmbH, priority 1997, dated 2002).
